The record followed here is PubChem BioAssay (NCI).

Test systems include CCRF-CEM leukemia; LOX IMVI melanoma; SF-268 CNS; SF-295 CNS; SK-MEL-28 melanoma; SK-OV-3 ovarian; RXF 393 renal; TK-10 renal; NCI-H460 lung.
Common to all, as to test: NCI tumour cell line growth inhibition, 48 h

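Test compounds were applied to cells in 96-well plates for 48 hours at 5 doses. TGI: total growth inhibition.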

In the case of `CC1=C2C(c3ccccc3)(c3ccccc3)C3C=CC2(C=N3)N(C(=O)NC2CCCCC2)C1=O` (stereo not given), the TGI in the assay with CCRF-CEM leukemia was found to be 36.1 µM; in the assay on LOX IMVI melanoma, 29.5 µM; in the assay on SF-268 CNS, 34.7 µM; in the assay on SF-295 CNS, 31.2 µM; with SK-MEL-28 melanoma, 30.6 µM; with SK-OV-3 ovarian it was 44.3 µM.
As to `CCC1(CN(C)C)CC/C(=C\c2ccc3c(c2)OCO3)C1=O` (stereo not given), the TGI in the assay on CCRF-CEM leukemia, in the assay on LOX IMVI melanoma, with RXF 393 renal, in the assay with SF-268 CNS, in the assay with SF-295 CNS and in the assay on SK-MEL-28 melanoma was above 100 µM each time. This compound registered a TGI in the assay on TK-10 renal above 100 µM.
With `COc1ccc(NC(=O)C(=O)C2NC(=S)NC2=O)c(OC)c1` (stereo not given), the TGI in the assay with LOX IMVI melanoma, with NCI-H460 lung, in the assay on RXF 393 renal, in the assay with SF-268 CNS, in the assay with SF-295 CNS and in the assay on SK-MEL-28 melanoma was above 100 µM each time. In addition, the TGI in the assay on SK-OV-3 ovarian and in the assay on TK-10 renal was above 100 µM throughout.
Turning to `C/C(=N\Nc1ccc([N+](=O)[O-])cc1)C(=O)N(C)Nc1ccccc1`, the TGI in the assay with CCRF-CEM leukemia, in the assay with LOX IMVI melanoma, in the assay with NCI-H460 lung, in the assay with RXF 393 renal, with SF-295 CNS and in the assay with SK-OV-3 ovarian was above 100 µM in each case. In the assay on TK-10 renal, the TGI was above 100 µM.
Consider `Cc1ccc(NC(=O)C(=O)Cc2nc3ccccc3o2)c(C)c1`, for which the TGI with LOX IMVI melanoma, in the assay on NCI-H460 lung, in the assay with RXF 393 renal, in the assay with SF-268 CNS, in the assay on SF-295 CNS and in the assay with SK-MEL-28 melanoma was above 100 µM in each case. Further, the TGI in the assay on SK-OV-3 ovarian and with TK-10 renal was above 100 µM throughout.
Regarding `CCN(CC)CCCNC(=O)Cc1ccccc1Nc1c(Cl)cccc1Cl`, the TGI in the assay on CCRF-CEM leukemia amounted to 28.2 µM; with LOX IMVI melanoma it was 25.6 µM; with RXF 393 renal, 30.6 µM; in the assay with SF-268 CNS, 31.2 µM; in the assay with SF-295 CNS, 32.7 µM; with SK-MEL-28 melanoma, 25.4 µM. For the same compound, the values for the TGI in the assay with SK-OV-3 ovarian and in the assay with TK-10 renal were 29.1 µM and 26.8 µM, respectively.
As for `COc1cc(Br)c(CC2=NCCc3cc(OC)c(OC)cc32)cc1OC`, the TGI in the assay with CCRF-CEM leukemia, with LOX IMVI melanoma, with NCI-H460 lung, with SF-268 CNS, in the assay on SF-295 CNS and in the assay with SK-MEL-28 melanoma was above 100 µM in each case. The TGI in the assay on SK-OV-3 ovarian and in the assay on TK-10 renal was above 100 µM each time.
Regarding `CCOC(=O)C(C[Si](C)(C)C)P(=O)(OCC)OCC` (stereo not given), the TGI in the assay on CCRF-CEM leukemia, with LOX IMVI melanoma, with NCI-H460 lung, in the assay on RXF 393 renal, in the assay on SF-268 CNS and in the assay on SF-295 CNS was above 100 µM each time. For the same compound, the TGI in the assay on SK-MEL-28 melanoma, in the assay on SK-OV-3 ovarian and in the assay on TK-10 renal was above 100 µM in each case.
Consider `O=[N+]([O-])c1ccccc1C1N2CCCCC2[C@@H]2c3[nH]c4ccccc4c3CCN12` (stereo not given in full), for which the TGI amounted to 30.4 µM in the assay with CCRF-CEM leukemia; 34.7 µM in the assay on NCI-H460 lung; 26.4 µM in the assay with RXF 393 renal; 27.4 µM in the assay on SF-268 CNS; 29.8 µM in the assay with SF-295 CNS; 26.6 µM in the assay on SK-MEL-28 melanoma. The TGI in the assay with SK-OV-3 ovarian was 54.3 µM; in the assay on TK-10 renal, 38.4 µM.
Consider `O=[N+]([O-])c1ccc(Cl)c(C2SCc3nc4ccccc4n32)c1` (stereo not given), for which the TGI in the assay on CCRF-CEM leukemia is above 100 µM; with NCI-H460 lung, 81.1 µM; with RXF 393 renal, above 100 µM; in the assay on SF-268 CNS it was above 100 µM; in the assay on SF-295 CNS, above 100 µM; in the assay on SK-MEL-28 melanoma it was above 100 µM. For the same compound, the TGI is 88 µM with SK-OV-3 ovarian and above 100 µM in the assay on TK-10 renal.
Consider `Cc1cc(C)c(C(=O)OC(c2ccccc2)C(c2ccccc2)N2CCOCC2)c(C)c1` (stereo not given), for which the TGI in the assay with CCRF-CEM leukemia, in the assay with LOX IMVI melanoma, in the assay with NCI-H460 lung, in the assay with RXF 393 renal, with SF-268 CNS and in the assay on SF-295 CNS was above 100 µM throughout. For the same compound, the TGI with SK-MEL-28 melanoma, in the assay with SK-OV-3 ovarian and in the assay with TK-10 renal was above 100 µM each time.
With `O=C1C(c2ccccc2)=C(c2ccccc2)C(c2ccc(CCCCCCc3ccc(C4=C(c5ccccc5)C(=O)C(c5ccccc5)=C4c4ccccc4)cc3)cc2)=C1c1ccccc1`, the TGI is above 100 µM with CCRF-CEM leukemia; above 100 µM in the assay on NCI-H460 lung; 79.7 µM in the assay with RXF 393 renal; above 100 µM in the assay on SF-268 CNS; above 100 µM in the assay with SF-295 CNS; above 100 µM in the assay on SK-MEL-28 melanoma. The same compound had a TGI in the assay with TK-10 renal above 100 µM.
Take `CC[C@@H]1OC2(C)CC(S(=O)(=O)c3ccccc3)CC1O2` (stereo not given in full): the TGI with CCRF-CEM leukemia, with NCI-H460 lung, in the assay on RXF 393 renal, in the assay with SF-268 CNS, with SF-295 CNS and in the assay with SK-MEL-28 melanoma was above 100 µM each time. This compound also gave a TGI with SK-OV-3 ovarian above 100 µM.
For the compound `COc1ccc(C(=O)C=C2NCCN2)cc1`, the TGI with CCRF-CEM leukemia, with LOX IMVI melanoma, in the assay on NCI-H460 lung, with RXF 393 renal, with SF-268 CNS and in the assay with SF-295 CNS was above 100 µM throughout. The TGI with SK-MEL-28 melanoma, in the assay with SK-OV-3 ovarian and in the assay with TK-10 renal was above 100 µM in each case.
Regarding `COc1ccc(C2S/C(=C\c3ccc(OC)cc3OC)C(=O)N2NC(=O)Cc2ccccc2)cc1` (stereo not given), the TGI in the assay with CCRF-CEM leukemia, in the assay on LOX IMVI melanoma, in the assay on NCI-H460 lung, with RXF 393 renal, in the assay with SF-268 CNS and in the assay with SF-295 CNS was above 100 µM in each case. Besides, the TGI with SK-OV-3 ovarian and with TK-10 renal was above 100 µM throughout.
Consider `COc1ccc2c(c1)CC[C@@H]1C2CC[C@]2(C)C(=O)NC(=O)CC12` (stereo not given in full), for which the TGI in the assay with CCRF-CEM leukemia, in the assay with LOX IMVI melanoma, in the assay on NCI-H460 lung, with SF-268 CNS, in the assay on SF-295 CNS and in the assay with SK-OV-3 ovarian was above 100 µM each time. In the assay with TK-10 renal, this compound had a TGI above 100 µM.
For the compound `COc1ccccc1/C=C\c1cc(OC)c(OC)c(OC)c1`, the TGI was above 100 µM with CCRF-CEM leukemia; above 100 µM in the assay on LOX IMVI melanoma; above 100 µM in the assay with NCI-H460 lung; 36.6 µM in the assay with RXF 393 renal; above 100 µM with SF-295 CNS; above 100 µM with SK-MEL-28 melanoma. This compound also returned a TGI in the assay with TK-10 renal above 100 µM.
With `Cc1ccc(N2C(=O)/C(=C3\Sc4c(nc(C)[nH]c4=O)N3c3ccccc3)SC2=S)cc1`, the TGI was above 100 µM in the assay on CCRF-CEM leukemia; 70.7 µM in the assay on LOX IMVI melanoma; above 100 µM with NCI-H460 lung; above 100 µM in the assay on SF-268 CNS; 54.8 µM in the assay with SF-295 CNS; above 100 µM in the assay with SK-MEL-28 melanoma. The TGI worked out at 53.5 µM in the assay with SK-OV-3 ovarian and 59.2 µM in the assay with TK-10 renal.
Turning to `COc1ccc(O)c2c1C(=O)CCCC2=O`, the TGI with CCRF-CEM leukemia, in the assay with LOX IMVI melanoma, with NCI-H460 lung, in the assay with SF-268 CNS, with SF-295 CNS and with SK-MEL-28 melanoma was above 100 µM each time. Moreover, the TGI in the assay on SK-OV-3 ovarian and in the assay on TK-10 renal was above 100 µM throughout.
For `COc1cc2c(cc1C)n(O)c(C)c(C(=O)C/C(=N/NC(=O)C[N+](C)(C)C)C(=O)Nc1cccc(Cl)c1C)[n+]2=O`, the TGI in the assay on CCRF-CEM leukemia, in the assay on LOX IMVI melanoma, in the assay with NCI-H460 lung, with RXF 393 renal, in the assay with SF-268 CNS and in the assay on SF-295 CNS was above 100 µM each time. In addition, the TGI with SK-MEL-28 melanoma and in the assay with TK-10 renal was above 100 µM each time.
Regarding `O=c1cccccc1NCCCCNc1cccccc1=O`, the TGI with CCRF-CEM leukemia, in the assay on LOX IMVI melanoma, with NCI-H460 lung, in the assay on SF-268 CNS, in the assay with SF-295 CNS and in the assay on SK-MEL-28 melanoma was above 100 µM in each case. Further, the TGI in the assay with SK-OV-3 ovarian and in the assay with TK-10 renal was above 100 µM throughout.
Turning to `COc1cc(C2C(C(=O)Nc3ccccc3)=C(C)NC(C)=C2C(=O)Nc2ccccc2)ccc1O`, the TGI with NCI-H460 lung, in the assay on RXF 393 renal, in the assay with SF-268 CNS, in the assay with SF-295 CNS, in the assay with SK-MEL-28 melanoma and in the assay with TK-10 renal was above 100 µM in each case.
As for `CCOC(=O)C(C)(C)Oc1ccc2c(-c3ccc(Cl)cc3)cc(=O)oc2c1`, the TGI in the assay on CCRF-CEM leukemia, in the assay with LOX IMVI melanoma, with NCI-H460 lung, in the assay with RXF 393 renal, in the assay with SF-268 CNS and with SF-295 CNS was above 100 µM each time. The TGI in the assay with SK-MEL-28 melanoma and in the assay with TK-10 renal was above 100 µM throughout.
For `CCOC(=O)C12CC1(C(=O)OCC)C1CCC2C1` (stereo not given), the TGI with CCRF-CEM leukemia, in the assay with LOX IMVI melanoma, in the assay with NCI-H460 lung, in the assay on SF-268 CNS, in the assay on SF-295 CNS and in the assay on SK-MEL-28 melanoma was above 100 µM in each case. The TGI with SK-OV-3 ovarian and with TK-10 renal was above 100 µM throughout.
